# Reference: patent publication US11925667B2, “Engineered therapeutic probiotic system and method” (priority 2018, dated 2024)
# Columns and labels:
# Assay type in all cases: biochemical
# [1] = molecular target: Arabidopsis thaliana myrosinase TGG1 (Arabidopsis thaliana, UniProt P37702); assay: Myrosinase activity assay (glucose release from sinigrin hydrolysis), TGG1
# Experimental: (§1) Screening for improved β-thioglucosidase. The activity and stability of myrosinase, a β-thioglucosidase that hydrolyzes glucosinolate to sulforaphane, varies at differing pH and temperature; in a preferred embodiment the selected enzyme needs to function under physiological colorectal conditions. The healthy colon pH averages 6.6, while it is 7.0 and 6.7 in patients with adenoma and carcinoma, respectively. In addition, the temperature of the human intestinal tract ranges from 36° C. to 40° C. depending on the individual's metabolic state. In the illustrative example five plant-derived myrosinase orthologues with minimal glycosylation sites and the absence of the co-factor-binding sites using the BLAST search and the Enzyme Function Initiative-Enzyme Similarity Tool (EFI-EST), are compared to the well-characterized myrosinases from Brevicoryne brassicae (BMY1) and Arabidopsis thaliana (TGG1) (FIG. 2a and FIG. 7).
# (§2) Gene cloning, protein expression and purification. Myrosinase genes are optimized for E. coli expression and cloned into the pET28b expression vector. The plasmids are transformed into E. coli BL21 (DE3) cultured in lysogeny broth (LB) (BD, Le Pont de Claix, France) at 37° C., 225 rpm to OD600 0.6 followed by 0.5 mM isopropyl β-D-1-thiogalactopyranoside (IPTG) induction at 16° C., 180 rpm for 16 hours. Cells are harvested, resuspended in lysis buffer (50 mM Tris-Cl, 300 mM NaCl, 10% glycerol, 1 mM dithiothreitol [DTT], pH 8.0) and lysed using Emulsiflex C-3 (Avestin). Expressed myrosinases are purified by IMAC Ni-NTA purification followed by Hi-Load Superdex 200 size exclusion column chromatography (GE, Uppsala, Sweden). The purified protein is concentrated and stored at −80° C. Pilot scale protein purification and enzymatic assay is conducted.
# (§3) Myrosinase screening assay. The enzymatic reaction is measured for the release of glucose resulting from sinigrin hydrolysis. The reaction is conducted in sodium phosphate-buffered solution supplied in the Amplex® Red Glucose/Glucose Oxidase Assay Kit (Thermo Fisher Scientific, Geel, Belgium). The reaction buffer is prepared at different pH values (6.0, 6.5, 7.4 and 8.0) and at different reaction temperatures (34° C., 37° C., and 40° C.). The reaction is prepared using 0.1 μM purified myrosinase added to 1× Amplex® Red Glucose Assay reaction mixture and was kick-started with the corresponding concentration of sinigrin. The reaction can be measured at 560 nm absorbance and fluorescence (λex=540 nm, λem=590 nm) using a Synergy H1 Multi-Mode microtiter plate reader (BioTek®, Winooski, USA). The reaction initial velocity (VO) is determined and fitted into a Michaelis-Menten curve. Vmax and KM are determined by fitting into the Michaelis-Menten equation (Eq. 1) using GraphPad Prism Software. ^v=Vmax*[Sinigrin]/(KM+[Sinigrin]) (Eq.1)
# (§4) Table S1|Myrosinase activity assay screening under various pH and temperature conditions (n=3 independent experiments, each measurement performed in triplicates; mean[…].).
# [2] = tested on: myrosinase Q5 (plant-derived myrosinase orthologue); assay: Myrosinase activity assay (glucose release from sinigrin hydrolysis), Q5
# Experimental: as §1, §2, §3, §4
# [3] = tested on: myrosinase Q9 (plant-derived myrosinase orthologue); assay: Myrosinase activity assay (glucose release from sinigrin hydrolysis), Q9
# Experimental: as §1, §2, §3, §4
# [4] = tested on: Brassica oleacea myrosinase A6; assay: Myrosinase activity assay (glucose release from sinigrin hydrolysis), A6
# Description: (§5) In a preferred embodiment, the myrosinases derived from Armoracia rusticana (I1) and Brassica oleacea (A6) have a better stability and catalytic efficiency in various temperatures and pH values when compared with those derived from BMY1 and TGG1 (Table 1). In a preferred illustrative embodiment I1 myrosinase is selected owing to its Km value and improved kcat at the colorectal ambient temperature and pH (FIG. 2c, 2d and Table 1). By comparing the modeled-I1 myrosinase protein structure against that of the BMY1 myrosinase, the critical side chain residues involved in glucose-ring recognition and the glutamic acid that served as a nucleophile during catalysis are conserved. According to the claimed invention the improved catalytic efficiency of the I1 myrosinase is correlated to its pI value (pI=7.90) and the overall positively charged surface (FIG. 8) that contributes to better structural stability.
# as §2, §3, §4
# [5] = molecular target: T1, Armoracia rusticana myrosinase I1, SEQ ID NO: 6 (Armoracia rusticana, UniProt I1TIJ2); assay: Myrosinase activity assay (glucose release from sinigrin hydrolysis), I1
# T1 construct: elsewhere used as YebF-I1 fusion
# T1 sequence (I1TIJ2 23-510): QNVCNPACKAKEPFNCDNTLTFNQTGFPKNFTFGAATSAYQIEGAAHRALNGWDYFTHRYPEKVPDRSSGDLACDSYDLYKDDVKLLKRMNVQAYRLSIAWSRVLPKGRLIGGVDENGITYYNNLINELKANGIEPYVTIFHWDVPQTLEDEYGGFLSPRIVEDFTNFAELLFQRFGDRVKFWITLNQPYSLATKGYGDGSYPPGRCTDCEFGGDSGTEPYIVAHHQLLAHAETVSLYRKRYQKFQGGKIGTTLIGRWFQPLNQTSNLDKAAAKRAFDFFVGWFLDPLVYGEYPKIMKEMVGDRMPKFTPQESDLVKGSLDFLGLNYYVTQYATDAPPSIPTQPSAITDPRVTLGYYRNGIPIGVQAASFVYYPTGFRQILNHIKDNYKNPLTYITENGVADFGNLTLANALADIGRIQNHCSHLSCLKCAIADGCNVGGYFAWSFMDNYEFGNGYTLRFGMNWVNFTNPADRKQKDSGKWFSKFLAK
# Description: as §5, §2, §3, §4
# [6] = molecular target: T2, Brevicoryne brassicae myrosinase BMY1 (Brevicoryne brassicae, UniProt Q95X01); assay: Myrosinase activity assay (glucose release from sinigrin hydrolysis), BMY1
# T2 sequence (Q95X01 1-464): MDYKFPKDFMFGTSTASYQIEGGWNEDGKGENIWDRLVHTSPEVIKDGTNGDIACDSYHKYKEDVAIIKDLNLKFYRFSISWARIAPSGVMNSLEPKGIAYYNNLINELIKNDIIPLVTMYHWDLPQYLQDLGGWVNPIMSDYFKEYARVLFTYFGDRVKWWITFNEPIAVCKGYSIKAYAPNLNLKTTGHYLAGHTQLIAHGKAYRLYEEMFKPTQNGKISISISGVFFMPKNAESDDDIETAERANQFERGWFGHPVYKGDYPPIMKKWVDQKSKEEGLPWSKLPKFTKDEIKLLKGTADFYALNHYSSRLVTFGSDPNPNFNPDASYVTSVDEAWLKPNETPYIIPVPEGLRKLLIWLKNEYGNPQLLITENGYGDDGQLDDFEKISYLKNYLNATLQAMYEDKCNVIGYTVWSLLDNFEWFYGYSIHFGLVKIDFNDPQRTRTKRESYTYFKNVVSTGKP
# Experimental: as §1, §2, §3, §4
# [7] = tested on: myrosinase C9 (plant-derived myrosinase orthologue); assay: Myrosinase activity assay (glucose release from sinigrin hydrolysis), C9
# Experimental: as §1, §2, §3, §4
# Arabidopsis thaliana myrosinase TGG1, sequence (P37702 20-541): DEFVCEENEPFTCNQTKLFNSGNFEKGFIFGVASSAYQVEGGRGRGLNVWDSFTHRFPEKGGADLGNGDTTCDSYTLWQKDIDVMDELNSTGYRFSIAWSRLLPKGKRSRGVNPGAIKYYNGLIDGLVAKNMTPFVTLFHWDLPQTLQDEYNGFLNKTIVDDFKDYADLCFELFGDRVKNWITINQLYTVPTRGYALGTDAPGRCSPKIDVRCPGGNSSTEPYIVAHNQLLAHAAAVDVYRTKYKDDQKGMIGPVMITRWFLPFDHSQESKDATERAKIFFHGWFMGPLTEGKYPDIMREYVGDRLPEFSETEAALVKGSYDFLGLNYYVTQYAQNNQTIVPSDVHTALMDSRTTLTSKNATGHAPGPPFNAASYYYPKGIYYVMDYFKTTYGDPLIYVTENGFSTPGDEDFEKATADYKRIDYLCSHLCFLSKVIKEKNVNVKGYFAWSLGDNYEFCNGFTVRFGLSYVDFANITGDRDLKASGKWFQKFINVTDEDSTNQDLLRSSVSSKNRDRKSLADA
smiles,measurement,setting,value
C=CC/C(=N/OS(=O)(=O)O)S[C@@H]1O[C@H](CO)[C@@H](O)[C@H](O)[C@H]1O [sinigrin],kcar,"[1]; pH 6.0, 37° C.",10.2 ± 0.6 s⁻¹
same,kcar,"[1]; pH 6.5, 37° C.",8.6 ± 1.6 s⁻¹
same,kcar,"[1]; pH 7.4, 34° C.",6.9 ± 1.6 s⁻¹
same,kcar,"[1]; pH 7.4, 37° C.",6.4 ± 1.1 s⁻¹
same,kcar,"[1]; pH 7.4, 40° C.",6.5 ± 0.2 s⁻¹
same,kcar,"[1]; pH 8.0, 37° C.",4.3 ± 0.7 s⁻¹
same,Km,"[2]; pH 6.0, 37° C.",184 ± 15 µM
same,kcar,"[2]; pH 6.0, 37° C.",4.6 ± 1.1 s⁻¹
same,Km,"[2]; pH 6.5, 37° C.",127 ± 21 µM
same,kcar,"[2]; pH 6.5, 37° C.",4.9 ± 1.2 s⁻¹
same,Km,"[2]; pH 7.4, 34° C.",225 ± 13 µM
same,kcar,"[2]; pH 7.4, 34° C.",2.9 ± 1.4 s⁻¹
same,Km,"[2]; pH 7.4, 37° C.",25 ± 7 µM
same,kcar,"[2]; pH 7.4, 37° C.",2.1 ± 1.6 s⁻¹
same,Km,"[2]; pH 7.4, 40° C.",49 ± 14 µM
same,kcar,"[2]; pH 7.4, 40° C.",3.7 ± 1.6 s⁻¹
same,Km,"[2]; pH 8.0, 37° C.",154 ± 24 µM
same,kcar,"[2]; pH 8.0, 37° C.",2.8 ± 1.1 s⁻¹
same,Km,"[3]; pH 6.0, 37° C.",111 ± 3 µM
same,kcar,"[3]; pH 6.0, 37° C.",3.0 ± 0.6 s⁻¹
same,Km,"[3]; pH 6.5, 37° C.",291 ± 5 µM
same,kcar,"[3]; pH 6.5, 37° C.",7.8 ± 0.8 s⁻¹
same,kcar,"[3]; pH 7.4, 34° C.",13.0 ± 3.5 s⁻¹
same,kcar,"[3]; pH 7.4, 37° C.",3.8 ± 1.5 s⁻¹
same,Km,"[3]; pH 7.4, 40° C.",893 ± 23 µM
same,kcar,"[3]; pH 7.4, 40° C.",12.3 ± 3.9 s⁻¹
same,Km,"[3]; pH 8.0, 37° C.",473 ± 6 µM
same,kcar,"[3]; pH 8.0, 37° C.",4.4 ± 1.0 s⁻¹
same,Km,"[4]; pH 6.0, 37° C.",68 ± 2 µM
same,kcar,"[4]; pH 6.0, 37° C.",6.6 ± 1.3 s⁻¹
same,Km,"[4]; pH 6.5, 37° C.",187 ± 13 µM
same,kcar,"[4]; pH 6.5, 37° C.",15.0 ± 1.5 s⁻¹
same,Km,"[4]; pH 7.4, 34° C.",47 ± 5 µM
same,kcar,"[4]; pH 7.4, 34° C.",7.2 ± 1.3 s⁻¹
same,Km,"[4]; pH 7.4, 37° C.",44 ± 4 µM
same,kcar,"[4]; pH 7.4, 37° C.",5.2 ± 0.9 s⁻¹
same,Km,"[4]; pH 7.4, 40° C.",189 ± 39 µM
same,kcar,"[4]; pH 7.4, 40° C.",9.7 ± 1.3 s⁻¹
same,Km,"[4]; pH 8.0, 37° C.",142 ± 22 µM
same,kcar,"[4]; pH 8.0, 37° C.",9.3 ± 1.2 s⁻¹
same,kcar,"[5]; pH 6.0, 37° C.",6.6 ± 0.7 s⁻¹
same,kcar,"[5]; pH 6.5, 37° C.",7.9 ± 1.1 s⁻¹
same,kcar,"[5]; pH 7.4, 34° C.",3.4 ± 0.7 s⁻¹
same,kcar,"[5]; pH 7.4, 37° C.",15.0 ± 1.5 s⁻¹
same,kcar,"[5]; pH 7.4, 40° C.",15.2 ± 1.5 s⁻¹
same,kcar,"[5]; pH 8.0, 37° C.",6.6 ± 3.1 s⁻¹
same,kcar,"[6]; pH 6.0, 37° C.",5.7 ± 0.8 s⁻¹
same,kcar,"[6]; pH 6.5, 37° C.",11.8 ± 0.4 s⁻¹
same,kcar,"[6]; pH 7.4, 34° C.",6.9 ± 0.4 s⁻¹
same,kcar,"[6]; pH 7.4, 37° C.",6.0 ± 0.7 s⁻¹
same,kcar,"[6]; pH 7.4, 40° C.",9.1 ± 0.8 s⁻¹
same,kcar,"[6]; pH 8.0, 37° C.",5.6 ± 0.6 s⁻¹
same,Km,"[7]; pH 6.0, 37° C.",439 ± 97 µM
same,kcar,"[7]; pH 6.0, 37° C.",5.6 ± 0.8 s⁻¹
same,Km,"[7]; pH 6.5, 37° C.",290 ± 31 µM
same,kcar,"[7]; pH 6.5, 37° C.",9.0 ± 0.9 s⁻¹
same,Km,"[7]; pH 7.4, 34° C.",384 ± 28 µM
same,kcar,"[7]; pH 7.4, 34° C.",11.2 ± 2.4 s⁻¹
same,Km,"[7]; pH 7.4, 37° C.",38 ± 2 µM
same,kcar,"[7]; pH 7.4, 37° C.",3.4 ± 0.6 s⁻¹
same,Km,"[7]; pH 7.4, 40° C.",352 ± 68 µM
same,kcar,"[7]; pH 7.4, 40° C.",9.0 ± 0.9 s⁻¹
same,Km,"[7]; pH 8.0, 37° C.",842 ± 80 µM
same,kcar,"[7]; pH 8.0, 37° C.",10.7 ± 1.3 s⁻¹
